Test results published in the supplement of paper PMC10307832.

Compound: CN(C)C(=N)NC(=N)N [Metformin] + CC(=O)Nc1cccc(-n2c(=O)n(C3CC3)c(=O)c3c(Nc4ccc(I)cc4F)n(C)c(=O)c(C)c32)c1 [Trametinib] (partner 0.02 µM)
Assay: relative viability (nuclei count vs DMSO), 5 days (fraction); higher = more cells survive
Conditions: first compound 1000 µM
Procedure, shortened: (§1)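 Lung cancer cell lines were seeded in 1536-well plates and dosed by pin tool the next day, with either a single drug or a fixed anchor-drug dose combined with five library-drug doses (not always all listed) spaced in √10 steps. Five days later, one step fixed the cells and stained their nuclei (final 0.05% Triton X-100, 1% formaldehyde, 1 ug/ml Hoechst), and nuclei were counted on 4× images. Relative viability is the nuclei count in treated wells divided by the count in vehicle wells, and each value is the median of duplicate plates.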

Cell Line	relative viability
PC-3 [JPC-3]	0.68
PC-14	0.575

Compound: CN(C)C(=N)NC(=N)N [Metformin] + CC(C)C[C@H](NC(=O)[C@H](Cc1ccccc1)NC(=O)c1cnccn1)B(O)O [Bortezomib] (partner 0.002 µM)
Assay: as above
Conditions: first compound 10 µM
Procedure, shortened: as §1

Cell Line	relative viability
LU99A	0.96
LXF-289	0.943
NCI-H23	1.07
NCI-H322M	1.32
NCI-H441	0.273
NCI-H520	0.777
NCI-H596	1.05
NCI-H647	1.19
NCI-H650	0.989
NCI-H661	0.867
NCI-H727	1.05
NCI-H838	1.02
NCI-H1355	1.1
NCI-H1437	0.629
NCI-H1650	0.208
NCI-H1651	0.989
NCI-H1666	0.789
NCI-H1734	0.952
NCI-H1755	0.861
NCI-H1975	0.335
NCI-H1993	1.09
NCI-H2009	0.694
NCI-H2085	1.1
NCI-H2087	0.564
NCI-H2126	1
NCI-H2347	1.09
NCI-H2405	0.55
NCI-H3122	0.824
PC-3 [JPC-3]	0.702
PC-14	0.818

Same assay, conditions: first compound 31.62 µM

Cell Line	relative viability
LU99A	1.06
LXF-289	0.904
NCI-H23	1.04
NCI-H322M	1.45
NCI-H520	0.716
NCI-H596	1.13
NCI-H647	1.15
NCI-H650	1.12
NCI-H661	0.881
NCI-H727	0.756
NCI-H838	1.14
NCI-H1355	1.18
NCI-H1437	0.641
NCI-H1650	0.206
NCI-H1651	1.15
NCI-H1666	0.942

Cell Line	relative viability
NCI-H1734	1.06
NCI-H1755	0.913
NCI-H1792	0.918
NCI-H1915	1.01
NCI-H1975	0.333
NCI-H1993	1.19
NCI-H2009	1.16
NCI-H2023	1.03
NCI-H2085	1.05
NCI-H2087	0.791
NCI-H2126	1.11
NCI-H2347	1.1
NCI-H2405	1.01
NCI-H3122	0.97
PC-3 [JPC-3]	0.865
PC-14	0.943

Same assay, conditions: first compound 100 µM

Cell Line	relative viability
LU99A	0.988
LXF-289	0.893
NCI-H23	1.04
NCI-H322M	1.19
NCI-H441	0.344
NCI-H520	0.75
NCI-H596	1.3
NCI-H647	1.18
NCI-H650	0.781
NCI-H661	1.36
NCI-H727	1.02
NCI-H838	0.926
NCI-H1355	1.14
NCI-H1437	0.459
NCI-H1650	0.232
NCI-H1651	1.16
NCI-H1666	0.71

Cell Line	relative viability
NCI-H1734	0.947
NCI-H1755	0.843
NCI-H1792	1.04
NCI-H1915	0.985
NCI-H1975	0.411
NCI-H1993	1.12
NCI-H2009	1.12
NCI-H2023	0.964
NCI-H2085	1.01
NCI-H2087	0.691
NCI-H2126	1.09
NCI-H2347	1.23
NCI-H2405	0.972
NCI-H3122	0.921
PC-3 [JPC-3]	0.772
PC-14	0.767

Same assay, conditions: first compound 316.23 µM

Cell Line	relative viability
LU99A	0.903
LXF-289	0.933
NCI-H23	1.11
NCI-H322M	1.36
NCI-H520	0.67
NCI-H596	1.27
NCI-H647	0.921
NCI-H650	0.782
NCI-H661	0.917
NCI-H727	0.774
NCI-H838	0.957
NCI-H1355	1.17
NCI-H1437	0.527
NCI-H1650	0.231
NCI-H1651	1.04
NCI-H1666	0.828

Cell Line	relative viability
NCI-H1734	0.951
NCI-H1755	0.783
NCI-H1792	0.922
NCI-H1915	0.961
NCI-H1975	0.375
NCI-H1993	1.18
NCI-H2009	1
NCI-H2085	1.09
NCI-H2087	0.786
NCI-H2126	1.09
NCI-H2347	1.09
NCI-H2405	0.924
NCI-H3122	0.863
PC-3 [JPC-3]	0.862
PC-14	0.906

Same assay, conditions: first compound 1000 µM

Cell Line	relative viability
LU99A	1.04
LXF-289	1.01
NCI-H23	1.28
NCI-H322M	1.48
NCI-H441	0.404
NCI-H520	0.928
NCI-H596	1.21
NCI-H647	1.17
NCI-H650	1.18
NCI-H661	1.06
NCI-H727	0.934
NCI-H838	1.23
NCI-H1355	1.24
NCI-H1437	0.574
NCI-H1650	0.231
NCI-H1651	1.08
NCI-H1666	0.864

Cell Line	relative viability
NCI-H1734	0.917
NCI-H1755	0.896
NCI-H1792	0.827
NCI-H1915	1.02
NCI-H1975	0.433
NCI-H1993	1.39
NCI-H2009	1.09
NCI-H2023	1.1
NCI-H2085	1.16
NCI-H2087	0.744
NCI-H2126	1.09
NCI-H2347	0.641
NCI-H2405	0.613
NCI-H3122	0.886
PC-3 [JPC-3]	0.833
PC-14	0.82
